The source of these data is ChEMBL document CHEMBL3400149, “Discovery of novel spiro 1,3,4-thiadiazolines as potent, orally bioavailable and brain penetrant KSP inhibitors” (Bioorg Med Chem, 2015).

Where only a bound is given, the exact number is not on record here.

The target of series [1] is T1, Kinesin-like protein KIF11 (Homo sapiens, UniProt P52732).
T1 sequence (P52732 whole entry): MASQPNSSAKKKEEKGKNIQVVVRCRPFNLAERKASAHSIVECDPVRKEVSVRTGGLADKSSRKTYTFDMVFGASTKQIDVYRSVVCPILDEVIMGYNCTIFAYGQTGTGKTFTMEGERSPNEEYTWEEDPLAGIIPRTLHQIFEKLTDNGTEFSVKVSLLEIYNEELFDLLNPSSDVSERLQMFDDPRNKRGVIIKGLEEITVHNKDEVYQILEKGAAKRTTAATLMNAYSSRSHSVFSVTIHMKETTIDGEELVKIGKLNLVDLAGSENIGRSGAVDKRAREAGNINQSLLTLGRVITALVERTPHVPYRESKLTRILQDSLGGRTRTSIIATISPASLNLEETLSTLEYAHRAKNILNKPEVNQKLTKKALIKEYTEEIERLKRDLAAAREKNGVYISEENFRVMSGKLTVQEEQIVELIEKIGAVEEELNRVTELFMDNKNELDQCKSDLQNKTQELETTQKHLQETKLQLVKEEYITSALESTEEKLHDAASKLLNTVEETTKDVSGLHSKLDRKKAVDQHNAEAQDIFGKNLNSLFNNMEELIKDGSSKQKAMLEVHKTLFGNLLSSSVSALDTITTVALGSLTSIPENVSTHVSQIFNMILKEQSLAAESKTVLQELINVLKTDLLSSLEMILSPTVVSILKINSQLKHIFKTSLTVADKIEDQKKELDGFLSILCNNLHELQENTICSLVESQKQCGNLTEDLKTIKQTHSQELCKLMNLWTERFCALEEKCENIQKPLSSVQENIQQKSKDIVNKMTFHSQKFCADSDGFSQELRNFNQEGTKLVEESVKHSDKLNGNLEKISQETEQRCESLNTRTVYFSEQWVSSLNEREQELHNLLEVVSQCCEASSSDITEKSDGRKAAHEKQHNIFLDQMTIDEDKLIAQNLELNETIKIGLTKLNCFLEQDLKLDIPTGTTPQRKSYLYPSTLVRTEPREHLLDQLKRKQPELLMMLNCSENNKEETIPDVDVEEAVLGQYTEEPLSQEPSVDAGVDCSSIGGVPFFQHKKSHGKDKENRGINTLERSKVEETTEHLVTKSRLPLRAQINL
Nature of the series: Inhibition of KSP in human HCT116 cells assessed as phos-histone H3 level by immunofluorescent assay. The class given is cell-based, HCT-116.

Series [2] is described as follows: AUC in Sprague-Dawley rat at 1 mg/kg, iv. As to conditions: plasma. Further details: dose 1 mg/kg, route intravenous. It counts as ADME, organism-based.
Series [3] can be described thus: Oral bioavailability in Sprague-Dawley rat at 5 mg/kg. As to conditions: in vivo. It counts as ADME, organism-based.
Series [4] can be described thus: AUC in CD1 mouse at 10 mg/kg, po. The arrangement: dose 10 mg/kg, route oral. The class given is ADME, organism-based. As to conditions: plasma.
Series [5] is described as follows: AUC in beagle dog at 5 mg/kg, po. Further details: dose 5 mg/kg, route oral. The class given is ADME, organism-based, Canis lupus familiaris. Conditions: plasma.
The nature of series [6]: Cmax in beagle dog at 5 mg/kg, po. The class given is ADME, organism-based, Canis lupus familiaris. The arrangement: dose 5 mg/kg, route oral. As to conditions: in vivo.
The nature of series [7]: AUC in CD1 mouse at 5 mg/kg, iv. The arrangement: dose 5 mg/kg, route intravenous. The class given is ADME, organism-based. As to conditions: plasma.
The nature of series [8]: Clearance in Sprague-Dawley rat at 1 mg/kg, iv. It counts as ADME, organism-based. Further details: dose 1 mg/kg, route intravenous. Conditions: in vivo.
A short description of series [9]: AUC in beagle dog at 1 mg/kg, iv. The class given is ADME, organism-based, Canis lupus familiaris. Further details: dose 1 mg/kg, route intravenous. As to conditions: plasma.
A short description of series [10]: Cmax in CD1 mouse at 10 mg/kg, po. It counts as ADME, organism-based. The arrangement: dose 10 mg/kg, route oral. As to conditions: in vivo.
Series [11] is described as follows: Clearance in CD1 mouse at 5 mg/kg, iv. The class given is ADME, organism-based. The arrangement: dose 5 mg/kg, route intravenous. As to conditions: in vivo.
Series [12] is described as follows: Oral bioavailability in CD1 mouse at 10 mg/kg. As to conditions: in vivo. The class given is ADME, organism-based.
The nature of series [13]: Oral bioavailability in beagle dog at 5 mg/kg. The class given is ADME, organism-based, Canis lupus familiaris. As to conditions: in vivo.
Series [14] in a line: AUC in Sprague-Dawley rat at 5 mg/kg, po. The class given is ADME, organism-based. The arrangement: dose 5 mg/kg, route oral. Conditions: plasma.
Series [15] can be described thus: Cmax in Sprague-Dawley rat at 5 mg/kg, po. The class given is ADME, organism-based. Further details: dose 5 mg/kg, route oral. Conditions: in vivo.
A short description of series [16]: Clearance in beagle dog at 1 mg/kg, iv. It counts as ADME, organism-based, Canis lupus familiaris. As to conditions: in vivo. The arrangement: dose 1 mg/kg, route intravenous.
Series [17] is described as follows: Retention time of the compound. The class given is physicochemical.
The nature of series [18]: Cmax in Sprague-Dawley rat at 10 mg/kg, po. The class given is ADME, organism-based. The arrangement: dose 10 mg/kg, route oral. Conditions: in vivo.
Series [19] in a line: AUC in Sprague-Dawley rat at 10 mg/kg, po. It counts as ADME, organism-based. Further details: dose 10 mg/kg, route oral. As to conditions: plasma.
A short description of series [20]: Oral bioavailability in Sprague-Dawley rat at 10 mg/kg. The class given is ADME, organism-based. As to conditions: in vivo.

Take `CC(=O)N1N=C(c2cc(F)ccc2F)SC12CCCOc1ccccc12` (stereo not given): in series [1], the EC50 is greater than 1000 nM.
With `CC(=O)N1N=C(c2cc(F)ccc2F)S[C@@]12c1cc(F)cc(F)c1OC[C@H]2CCN`, the exposure (AUC) in [2] was determined as 0.8 µM·h; in series [4], 13.4 µM·h; in series [5], 1.7 µM·h; in series [7], 6.5 µM·h; in series [9], 1.9 µM·h; in series [14], 1.7 µM·h. For the same compound, the bioavailability was 44% in series [3], 100% in series [12] and 18% in [13]. Further, the peak concentration (Cmax) in series [6] worked out at 200 nM; in series [10], 1200 nM; in series [15], 180 nM. Further, the concentration giving a half-maximal response (EC50) in [1] is 5 nM. Further, the clearance was found to be 50 mL/min/kg in [8], 29 mL/min/kg in series [11] and 20 mL/min/kg in series [16].
`CC(=O)N1CCC2(SC(c3cc(F)ccc3F)=NN2C(C)=O)c2ccccc21` (stereo not given): the EC50 in series [1] was greater than 1000 nM.
As to `CC(=O)N1N=C(c2cc(F)ccc2F)SC12c1ccccc1OCC2CCN` (racemic), the concentration for a half-maximal effect (EC50) in [1] was determined as 5 nM.
On the same count and under the same terms, under `CC(=O)N1N=C(c2cc(F)ccc2F)SC12CCSc1ccccc12` (stereo not given) stands 3310 nM; under `NCCCC(=O)N1N=C(c2cc(F)ccc2F)SC12CCOc1ccccc12` (stereo not given), 338 nM.
`CC(=O)N1N=C(c2cc(F)ccc2F)S[C@]12c1ccccc1OC[C@H]2CCN`: in [17], the Retention_time is reported as 2.15 min. Further, the concentration giving a half-maximal response (EC50) in series [1] came to 205 nM.
Consider `CC(=O)N1N=C(c2cc(F)ccc2F)SC12CCOc1ccccc12` (stereo not given), for which, in series [1], the EC50 came out at 139 nM.
As to `CC(=O)N1N=C(c2cc(F)ccc2F)S[C@@]12c1cc(F)ccc1OC[C@H]2CCN`, the Cmax in series [18] was determined as 17 nM; in series [10] it was 770 nM. Moreover, the exposure (AUC) was 0.37 µM·h in series [2], 3.3 µM·h in series [4], 2.6 µM·h in series [7] and 0.15 µM·h in series [19]. For the same compound, in series [1], the concentration giving a half-maximal response (EC50) was 1 nM. For the same compound, the clearance in [8] was found to be 109 mL/min/kg; in [11], 76 mL/min/kg. Besides, the bioavailability in series [12] came out at 64%; in series [20] it was 8%.
With `CC(=O)N1N=C(c2cc(F)ccc2F)SC12CCN(C)c1ccccc12` (stereo not given), in series [1], the concentration for a half-maximal effect (EC50) was greater than 1000 nM.
`NCC(=O)N1N=C(c2cc(F)ccc2F)SC12CCOc1ccccc12` (stereo not given): the EC50 in [1] is greater than 1000 nM.
Turning to `CC(C)C(=O)N1N=C(c2cc(F)ccc2F)SC12CCOc1ccccc12` (stereo not given), the EC50 in series [1] was greater than 500 nM.
Take `CN(C)CCCC(=O)N1N=C(c2cc(F)ccc2F)SC12CCOc1ccccc12` (stereo not given): the EC50 in series [1] amounted to 263 nM.
On the same count and under the same terms, under `CC(=O)N1N=C(c2cc(F)ccc2F)S[C@@]12c1cc(Cl)ccc1OC[C@H]2CCN` stands 17 nM.
